Data on 15 compounds can be found in US10874670B2, “Substituted fused heteroaromatic compounds as kinase inhibitors and the use thereof” (IMPACT THERAPEUTICS, INC., priority 2017, dated 2020).

The subject of assay [1] is human breast cancer cell MDA-MB-468. The assay is described as follows: MTT assay, growth of MDA-MB-468 cells. The note with it: 7 days, MTT. Type of assay: cell-based. As for the experimental part:
Inhibitory Effects of N,N-dimethyl-3-(4-(1-(tetrahydro-2H-pyran-4-yl)-[1,2,4]triazolo[4,3-a]quinoxalin-8-yl)phenoxy)propan-1-amine and its Analogues on the Growth of Human Breast Cancer Cell MDA-MB-468 were Determined by MTT Assay
(§1) MDA-MB-468 cells were digested by trypsinase, centrifuged at 800 rpm for 5 minutes, the supernatant was discarded, resuspended with fresh medium (RPMI 1640 medium+10% FBS) and counted. The cells were seeded into 96-well cell culture plate with appropriate cell density and incubated overnight in a 37° C. 5% CO2 incubator. The stock solutions of the tested compound and the reference compound AZD0156 were serially diluted to 8 concentrations by DMSO at the ratios of 1:3 and 1:10, respectively: the first concentration was 100 μM or 1 μM, and the last concentration was negative control of DMSO (0 μM, the final concentration of DMSO was 1%). 5 μL of each concentration was added to 120 μL of medium (25 times diluted) and mixed by shaking. The overnight cells were taken and the culture medium was removed, 195 μL of fresh medium was added to each well, and 5 μL of diluted medium containing the corresponding concentration of the tested sample was added respectively, and the culture plate was then placed in the 5% CO2 cell culture incubator at 37° C. for 7 days (On the fourth day, the medium containing drugs was removed and fresh medium containing drugs was added for continuous cultivation). After removing the original solution, 100 μL of fresh serum-free DMEM medium containing MTT (0.5 mg/mL) was added to each well, the culture was continued. After 4 hours, the original solution was removed, 100 μL of DMSO was added into each well, the 96-well plates were shaken away from light for 10 minutes and placed in a multi-function reader to read the absorbance at the wavelength of 552/630/690 nm. GraphPad Prism 6.0 was used to analyze the data. The inhibitory activity of compounds on cell proliferation was plotted based on cell viability and compound concentration. The IC50 value was fitted by a sigmoidal dose response curve equation Y=100/(1+10^(Log C−Log IC50)), where C was the concentration of compound.
Table 4 summarizes the inhibitory effects of compounds on the growth of human breast cancer cell MDA-MB-468 (IC50).

Assay [2] has as its system human colon cancer cell SW620. The assay is described as follows: MTT assay, growth of SW620 cells, compounds combined with CPT-11. In kind it is cell-based. The note with it: combined with CPT-11 (205 nM medium), 5 days, MTT. As for the experimental part:
Inhibitory effects of N,N-dimethyl-3-(4-(1-(tetrahydro-2H-pyran-4-yl)-[1,2,4]triazolo[4,3-a]quinoxalin-8-yl)phenoxy)propan-1-amine and its Analogues Combined with CPT-11 on the Growth of Human Colon Cancer Cell SW620 were Determined by MTT Assay
as §1, with “SW620 cells were” for “MDA-MB-468 cells were”, “and 1:10, respectively, the first” for “and 1:10, respectively: the first”, “concentration was 10 μM or” for “concentration was 100 μM or”, “fresh medium containing 205 nM CPT-11 was added” for “fresh medium was added”, “C. for 5 days. After removing” for “C. for 7 days (On the fourth day, the medium containing drugs was removed and fresh medium containing drugs was added for continuous cultivation). After removing”, “solution, 100 pt of fresh” for “solution, 100 μL of fresh”
Table 3 summarizes the inhibitory effects of compounds combined with CPT-11 on the growth of human colon cancer cell SW620 (IC50).
For orientation: Tetrazolium dyes change colour on reduction, which living cells bring about.

In a further assay the target is ATM enzyme (human) (Homo sapiens, UniProt Q13315). The assay is described as follows: ATM kinase assay (HTRF, GST-cMyc-p53 substrate). In kind it is biochemical. The note with it: for inhibition at 1 µM / inhibition at 0.01 µM / inhibition at 0.1 µM: 0.5 h, read-out: Inh (%) of ATM kinase. The procedure:
In Vitro Inhibition of ATM by N,N-dimethyl-3-(4-(1-(tetrahydro-2H-pyran-4-yl)-[1,2,4]triazolo[4,3-a]quinoxalin-8-yl)phenoxy)propan-1-amine and its Analogues was Determined by ATM Kinase Assay
The reaction was initiated by the addition of a Mg/ATP mixture and incubation for 30 minutes at room temperature, the reaction was quenched by the addition of a stop solution containing EDTA. Finally, the detection buffer containing the d2-labeled anti-GST monoclonal antibody and the europium-labeled anti-phospho p53 (Ser15) antibody was added. The plate was then read in time resolved fluorescence mode and the homogeneous time resolved fluorescence (HTRF) signal was determined according to the equation: HTRF=10000×(Em665nm/Em620nm). Each compound sample was repeated in duplicate. The experiment negative control was all components except of the ATM enzyme and the positive control contained all components. All reactions were quenched by adding EDTA.
ATM kinase inhibition was detected by using the method described above. The curve equation for calculating IC50 value is as follows:
[formula] • wherein, C is the concentration of compound and D is the slope factor.
Background: In TR-FRET formats the signal depends on donor and acceptor labels being close together.

Setting [3] is: Homo sapiens, MDA-MB-468, 168 h.
Setting [4] is: C 1 μm (final concentration of compound).
Setting [5] is: C 0.01 μm (final concentration of compound).
Where [6] appears, read: C 0.1 μm (final concentration of compound).

A value given as a limit tells only on which side of the number the result lay.

Chain of ATM enzyme (human) (Q13315 whole entry): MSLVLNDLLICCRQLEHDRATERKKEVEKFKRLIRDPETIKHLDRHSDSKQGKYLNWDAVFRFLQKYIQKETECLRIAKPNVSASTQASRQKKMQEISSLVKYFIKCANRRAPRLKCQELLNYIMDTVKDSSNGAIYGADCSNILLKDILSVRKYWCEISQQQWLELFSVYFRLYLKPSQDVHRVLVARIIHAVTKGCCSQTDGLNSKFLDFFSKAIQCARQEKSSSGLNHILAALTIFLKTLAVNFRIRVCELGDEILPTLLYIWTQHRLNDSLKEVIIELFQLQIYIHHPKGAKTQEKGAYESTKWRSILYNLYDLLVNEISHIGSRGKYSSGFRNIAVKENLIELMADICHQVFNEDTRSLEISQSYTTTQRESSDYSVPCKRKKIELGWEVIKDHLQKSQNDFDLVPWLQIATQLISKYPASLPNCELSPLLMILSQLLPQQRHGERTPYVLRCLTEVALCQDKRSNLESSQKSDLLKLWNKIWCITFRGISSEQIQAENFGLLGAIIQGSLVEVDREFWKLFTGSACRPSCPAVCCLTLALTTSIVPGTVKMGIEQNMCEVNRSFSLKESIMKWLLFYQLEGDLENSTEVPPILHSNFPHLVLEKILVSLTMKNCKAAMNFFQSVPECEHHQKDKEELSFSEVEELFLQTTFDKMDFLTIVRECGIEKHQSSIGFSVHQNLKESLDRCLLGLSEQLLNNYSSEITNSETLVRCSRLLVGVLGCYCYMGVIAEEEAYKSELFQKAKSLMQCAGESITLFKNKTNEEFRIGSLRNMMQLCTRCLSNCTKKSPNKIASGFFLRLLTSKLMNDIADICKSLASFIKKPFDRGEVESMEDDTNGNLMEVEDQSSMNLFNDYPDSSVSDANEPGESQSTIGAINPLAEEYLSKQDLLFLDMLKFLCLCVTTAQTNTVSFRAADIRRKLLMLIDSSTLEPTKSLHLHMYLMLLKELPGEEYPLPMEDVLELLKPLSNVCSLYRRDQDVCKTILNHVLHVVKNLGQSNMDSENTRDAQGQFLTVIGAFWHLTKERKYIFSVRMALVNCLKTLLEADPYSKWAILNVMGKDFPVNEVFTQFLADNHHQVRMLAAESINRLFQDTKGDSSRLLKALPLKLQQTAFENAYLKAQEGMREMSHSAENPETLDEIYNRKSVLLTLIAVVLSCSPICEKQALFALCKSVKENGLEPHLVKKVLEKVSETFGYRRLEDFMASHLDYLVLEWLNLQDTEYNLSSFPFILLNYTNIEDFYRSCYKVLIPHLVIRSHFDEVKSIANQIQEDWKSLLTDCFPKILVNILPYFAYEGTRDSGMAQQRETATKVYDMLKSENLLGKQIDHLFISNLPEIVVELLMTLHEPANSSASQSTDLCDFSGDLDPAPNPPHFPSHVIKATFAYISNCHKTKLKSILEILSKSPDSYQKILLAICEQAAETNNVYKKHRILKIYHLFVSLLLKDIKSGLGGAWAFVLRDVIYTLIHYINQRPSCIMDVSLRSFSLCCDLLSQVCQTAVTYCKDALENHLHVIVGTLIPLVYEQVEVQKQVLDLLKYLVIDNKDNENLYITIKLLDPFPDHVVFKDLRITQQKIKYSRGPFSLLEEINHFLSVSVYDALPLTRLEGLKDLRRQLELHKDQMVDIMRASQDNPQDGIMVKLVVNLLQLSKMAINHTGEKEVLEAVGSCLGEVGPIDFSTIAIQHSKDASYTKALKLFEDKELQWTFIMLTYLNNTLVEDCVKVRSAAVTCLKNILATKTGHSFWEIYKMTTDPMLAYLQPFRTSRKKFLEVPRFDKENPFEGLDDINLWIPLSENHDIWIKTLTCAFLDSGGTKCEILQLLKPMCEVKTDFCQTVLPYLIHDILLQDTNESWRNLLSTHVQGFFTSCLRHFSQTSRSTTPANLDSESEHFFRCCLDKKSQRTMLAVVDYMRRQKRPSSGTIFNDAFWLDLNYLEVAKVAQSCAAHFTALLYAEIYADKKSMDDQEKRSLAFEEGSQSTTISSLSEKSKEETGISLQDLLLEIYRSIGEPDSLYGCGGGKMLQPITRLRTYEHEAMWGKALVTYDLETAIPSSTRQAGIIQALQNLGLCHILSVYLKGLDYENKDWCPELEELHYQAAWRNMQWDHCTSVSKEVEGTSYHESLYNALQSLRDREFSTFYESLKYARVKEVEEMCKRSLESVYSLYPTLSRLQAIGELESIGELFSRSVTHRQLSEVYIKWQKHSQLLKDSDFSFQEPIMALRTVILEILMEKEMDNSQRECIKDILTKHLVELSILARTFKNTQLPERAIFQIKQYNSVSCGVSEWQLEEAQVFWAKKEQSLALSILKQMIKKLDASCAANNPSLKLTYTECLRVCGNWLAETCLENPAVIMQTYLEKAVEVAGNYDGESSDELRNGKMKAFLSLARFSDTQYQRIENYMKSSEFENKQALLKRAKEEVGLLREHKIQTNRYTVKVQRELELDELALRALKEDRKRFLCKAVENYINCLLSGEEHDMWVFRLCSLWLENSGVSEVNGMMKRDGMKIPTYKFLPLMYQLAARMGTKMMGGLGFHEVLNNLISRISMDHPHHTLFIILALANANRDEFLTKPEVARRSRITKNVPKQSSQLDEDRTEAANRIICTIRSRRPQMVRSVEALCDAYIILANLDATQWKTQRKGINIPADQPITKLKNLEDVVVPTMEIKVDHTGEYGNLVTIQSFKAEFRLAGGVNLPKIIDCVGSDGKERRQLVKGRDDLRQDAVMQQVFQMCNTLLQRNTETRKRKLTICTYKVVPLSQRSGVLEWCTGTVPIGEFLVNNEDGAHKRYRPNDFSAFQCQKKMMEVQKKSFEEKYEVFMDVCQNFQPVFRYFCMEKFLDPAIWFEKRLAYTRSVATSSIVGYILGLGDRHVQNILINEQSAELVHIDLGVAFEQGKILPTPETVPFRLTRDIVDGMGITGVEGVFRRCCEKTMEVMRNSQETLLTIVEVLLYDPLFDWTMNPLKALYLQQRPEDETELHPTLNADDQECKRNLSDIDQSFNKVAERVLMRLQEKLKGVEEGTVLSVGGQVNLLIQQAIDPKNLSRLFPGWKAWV

For `C[C@@H]1CN(c2nnc3cnc4ccc(-c5ccc(OCCCN(C)C)cc5)nc4n23)C[C@H](C)N1C` [Example 80, N,N-dimethyl-3-(4-(9-((3S,5R)-3,4,5-trimethylpiperazin-1-yl)pyrido[3,2-e][1,2,4]triazolo[4,3-a]pyrazin-2-yl)phenoxy)propan-1-amine], the IC50 (commonly the midpoint of a concentration-inhibition curve) was found to be 271 nM in assay [1] (setting [3]) and 164 nM in assay [2] (Homo sapiens, SW-620, 120 h).

Regarding `CN(C)CCCOc1ccc(-c2cc3c(cn2)ncc2nnc(C4CCOCC4)n23)cc1` [Example 69, N,N-dimethyl-3-(4-(1-(tetrahydro-2H-pyran-4-yl)pyrido[3,4-e][1,2,4]triazolo[4,3-a]pyrazin-8-yl)phenoxy)propan-1-amine], in assay [1], the half-maximal inhibitory concentration (IC50) was > 10000 nM.

As for `C[C@@H]1CN(c2nnc3cnc4ccc(-c5ccc(OCCCN(C)C)c(C(F)(F)F)c5)nc4n23)C[C@H](C)N1C` [Example 83, N,N-dimethyl-3-(2-(trifluoromethyl)-4-(9-((3S,5R)-3,4,5-trimethylpiperazin-1-yl)pyrido[3,2-e][1,2,4]triazolo[4,3-a]pyrazin-2-yl)phenoxy)propan-1-amine], the IC50 turned out to be 73.4 nM in assay [1] (setting [3]) and 148 nM in assay [2] (Homo sapiens, SW-620, 120 h).

`C[C@@H]1CN(c2nnc3cnc4ccc(-c5ccc(OCCCN(C)C)c(F)c5)nc4n23)C[C@H](C)N1C` [Example 81, 3-(2-fluoro-4-(9-((3S,5R)-3,4,5-trimethylpiperazin-1-yl)pyrido[3,2-e][1,2,4]triazolo[4,3-a]pyrazin-2-yl)phenoxy)-N,N-dimethylpropan-1-amine]: the IC50 in assay [1] (setting [3]) came out at 201 nM; in assay [2] (Homo sapiens, SW-620, 120 h) it was 138 nM.

With `CN(C)CCCOc1cnc(-c2ccc3ncc4nnc(C5CCOCC5)n4c3c2)cn1` [Example 8, N,N-dimethyl-3-((5-(1-(tetrahydro-2H-pyran-4-yl)-[1,2,4]triazolo[4,3-a]quinoxalin-8-yl)pyrazin-2-yl)oxy)propan-1-amine], the IC50 in assay [2] (Homo sapiens, SW-620, 120 h) turned out to be 3300 nM. The inhibition at 1 µM on ATM enzyme (human) (setting [4]) worked out at 38%.

As for `CN(C)CCCOc1cnc(-c2ccc3ncc4nnc(C5CCOCC5)n4c3c2)nc1` [Example 7, N,N-dimethyl-3-((2-(1-(tetrahydro-2H-pyran-4-yl)-[1,2,4]triazolo[4,3-a]quinoxalin-8-yl)pyrimidin-5-yl)oxy)propan-1-amine], the IC50 in assay [2] (Homo sapiens, SW-620, 120 h) stood at 3100 nM. On ATM enzyme (human) (setting [4]), the inhibition at 1 µM was 40%.

With `c1ccc(-c2ccc3ncc4nnc(C5CCOCC5)n4c3c2)cc1` [Example 39, 8-phenyl-1-(tetrahydro-2H-pyran-4-yl)-[1,2,4]triazolo[4,3-a]quinoxaline], in assay [2] (Homo sapiens, SW-620, 120 h), the IC50 is > 100000 nM. On ATM enzyme (human) (setting [4]), the inhibition at 1 µM came to 62%.

`C[C@@H]1CN(c2nnc3cnc4ccc(-c5ccc(OCCCN(C)C)c(Cl)c5)nc4n23)C[C@H](C)N1C` [Example 82, 3-(2-chloro-4-(9-((3S,5R)-3,4,5-trimethylpiperazin-1-yl)pyrido[3,2-e][1,2,4]triazolo[4,3-a]pyrazin-2-yl)phenoxy)-N,N-dimethylpropan-1-amine]: the 50% inhibitory concentration (IC50) in assay [1] (setting [3]) worked out at 200 nM; in assay [2] (Homo sapiens, SW-620, 120 h), 189 nM.

`CN(C)CCCNc1ccc(-c2ccc3ncc4nnc(C5CCOCC5)n4c3c2)cc1` [Example 10, N-(3-(dimethylamino)propyl)-4-(1-(tetrahydro-2H-pyran-4-yl)-[1,2,4]triazolo[4,3-a]quinoxalin-8-yl)aniline]: the IC50 in assay [2] (Homo sapiens, SW-620, 120 h) came to 5210 nM. Also, the inhibition at 1 µM on ATM enzyme (human) (setting [4]) came out at 85%.

On to `CN(C)CCCOc1ccc(-c2ccc3ncc4nnc(CN5CCOCC5)n4c3n2)cc1` [Example 79, N,N-dimethyl-3-(4-(9-(morpholinomethyl)pyrido[3,2-e][1,2,4]triazolo[4,3-a]pyrazin-2-yl)phenoxy)propan-1-amine], for which the IC50 in assay [2] (Homo sapiens, SW-620, 120 h) was 1980 nM. At ATM enzyme (human) (setting [5]), the inhibition at 0.01 µM turned out to be 21%. For the same compound, the inhibition at 0.1 µM at ATM enzyme (human) (setting [6]) came out at 62%. Further, the inhibition at 1 µM at ATM enzyme (human) (setting [4]) worked out at 94%.

For `CN1CCN(c2ccc(-c3ccc4ncc5nnc(C6CCOCC6)n5c4c3)cc2)CC1` [Example 13, 8-(4-(4-methylpiperazin-1-yl)phenyl)-1-(tetrahydro-2H-pyran-4-yl)-[1,2,4]triazolo[4,3-a]quinoxaline], in assay [2] (Homo sapiens, SW-620, 120 h), the IC50 was > 100000 nM. At ATM enzyme (human) (setting [5]), the inhibition at 0.01 µM came to 8%. Also, the inhibition at 0.1 µM at ATM enzyme (human) (setting [6]) is 49%. Moreover, at ATM enzyme (human) (setting [4]), the inhibition at 1 µM was 93%.

As to `NC1CCN(c2ccc(-c3ccc4ncc5nnc(C6CCOCC6)n5c4c3)cc2)CC1` [Example 41, 1-(4-(1-(tetrahydro-2H-pyran-4-yl)-[1,2,4]triazolo[4,3-a]quinoxalin-8-yl)phenyl)piperidin-4-amine], the IC50 in assay [2] (Homo sapiens, SW-620, 120 h) turned out to be 456 nM. Besides, the inhibition at 0.01 µM at ATM enzyme (human) (setting [5]) came to 33%. Also, the inhibition at 0.1 µM on ATM enzyme (human) (setting [6]) stood at 81%. Further, at ATM enzyme (human) (setting [4]), the inhibition at 1 µM was 99%.

With `C[N+](C)(C)CCCNc1ccc(-c2ccc3ncc4nnc(C5CCOCC5)n4c3c2)cc1` [Example 40, N,N,N-trimethyl-3-((4-(1-(tetrahydro-2H-pyran-4-yl)-[1,2,4]triazolo[4,3-a]quinoxalin-8-yl)phenyl)amino)propan-1-aminium], the IC50 in assay [2] was > 100000 nM. For the same compound, the “Inh (%) of ATM kinase” value at ATM enzyme (human) (setting [5]) stood at 33%; at ATM enzyme (human) (setting [6]) it was 81%; on ATM enzyme (human) (setting [4]), 99%.

As for `CN(C)CCCOc1ncc(-c2ccc3ncc4nnc(C5CCOCC5)n4c3c2)cn1` [Example 6, N,N-dimethyl-3-((5-(1-(tetrahydro-2H-pyran-4-yl)-[1,2,4]triazolo[4,3-a]quinoxalin-8-yl)pyrimidin-2-yl)oxy)propan-1-amine], in assay [2] (Homo sapiens, SW-620, 120 h), the IC50 is > 100000 nM. For the same compound, at ATM enzyme (human) (setting [4]), the inhibition at 1 µM was 57%.

For the compound `CN(C)CCCOc1ccc(-c2cnc3ncc4nnc(C5CCOCC5)n4c3c2)cc1` [Example 2, N,N-dimethyl-3-(4-(1-(tetrahydro-2H-pyran-4-yl)pyrido[2,3-e][1,2,4]triazolo[4,3-a]pyrazin-8-yl)phenoxy)propan-1-amine], the IC50 in assay [2] (Homo sapiens, SW-620, 120 h) was > 100000 nM. For the same compound, the inhibition at 1 µM at ATM enzyme (human) (setting [4]) worked out at 57%.
